Reference: ChEMBL document CHEMBL2074438, “Influence of omeprazole on multidrug resistance protein 3 expression in human liver” (J Pharmacol Exp Ther, 2003)

Key:
[1] = biological target: Multidrug resistance associated protein (Homo sapiens) (UniProt Q96QA9); assay: TP_TRANSPORTER: Western blot, HepG2 cells; type: functional, cell-based
[2] = biological target: Multidrug resistance associated protein (Homo sapiens) (UniProt Q96QA9); assay: TP_TRANSPORTER: RT-PCR in HepG2 cells; type: functional, cell-based

Chain of Multidrug resistance associated protein (Homo sapiens) (Q96QA9 as listed by the source): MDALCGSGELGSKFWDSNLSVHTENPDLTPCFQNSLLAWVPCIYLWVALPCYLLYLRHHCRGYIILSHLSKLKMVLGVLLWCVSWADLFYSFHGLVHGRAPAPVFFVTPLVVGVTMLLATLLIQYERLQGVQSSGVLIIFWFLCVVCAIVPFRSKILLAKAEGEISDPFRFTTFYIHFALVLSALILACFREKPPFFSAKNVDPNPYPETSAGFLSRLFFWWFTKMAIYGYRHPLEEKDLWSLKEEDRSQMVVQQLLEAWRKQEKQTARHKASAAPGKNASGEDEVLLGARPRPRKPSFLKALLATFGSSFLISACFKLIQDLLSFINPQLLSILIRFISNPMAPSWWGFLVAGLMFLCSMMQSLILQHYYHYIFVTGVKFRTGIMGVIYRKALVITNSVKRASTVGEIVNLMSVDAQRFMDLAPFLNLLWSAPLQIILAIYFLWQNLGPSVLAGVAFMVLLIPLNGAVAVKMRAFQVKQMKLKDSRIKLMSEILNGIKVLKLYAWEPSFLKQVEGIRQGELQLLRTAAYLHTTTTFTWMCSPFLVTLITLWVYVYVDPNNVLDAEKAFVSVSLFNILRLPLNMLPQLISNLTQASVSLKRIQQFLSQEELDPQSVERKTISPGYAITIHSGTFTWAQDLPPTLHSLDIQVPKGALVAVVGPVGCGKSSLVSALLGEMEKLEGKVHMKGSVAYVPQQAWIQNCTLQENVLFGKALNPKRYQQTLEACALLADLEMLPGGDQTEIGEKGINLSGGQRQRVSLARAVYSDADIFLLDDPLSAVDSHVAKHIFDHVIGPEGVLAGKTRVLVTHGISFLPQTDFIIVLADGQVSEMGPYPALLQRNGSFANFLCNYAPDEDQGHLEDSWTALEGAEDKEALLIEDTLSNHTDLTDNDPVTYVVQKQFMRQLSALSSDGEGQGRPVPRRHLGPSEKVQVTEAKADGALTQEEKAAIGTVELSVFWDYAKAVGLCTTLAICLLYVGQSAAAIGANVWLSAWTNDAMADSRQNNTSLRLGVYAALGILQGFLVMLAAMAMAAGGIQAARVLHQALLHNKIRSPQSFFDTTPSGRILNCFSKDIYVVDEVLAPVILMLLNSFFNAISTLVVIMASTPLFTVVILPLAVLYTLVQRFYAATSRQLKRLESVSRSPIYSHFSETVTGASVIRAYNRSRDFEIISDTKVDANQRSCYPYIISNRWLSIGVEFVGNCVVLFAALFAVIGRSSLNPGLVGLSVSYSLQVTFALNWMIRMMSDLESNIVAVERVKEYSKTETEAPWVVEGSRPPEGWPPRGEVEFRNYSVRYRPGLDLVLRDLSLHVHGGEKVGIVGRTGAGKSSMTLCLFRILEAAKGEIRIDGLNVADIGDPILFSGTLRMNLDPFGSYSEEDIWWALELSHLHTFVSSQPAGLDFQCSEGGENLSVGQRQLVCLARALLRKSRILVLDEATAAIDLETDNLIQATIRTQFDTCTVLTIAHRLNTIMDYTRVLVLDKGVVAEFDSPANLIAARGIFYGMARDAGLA

Row | Activity [1] | Activity [2] | Compound
1 | inducer [] | inducer [] | COc1ccc2[nH]c([S+]([O-])Cc3ncc(C)c(OC)c3C)nc2c1 (centres undefined)
2 | inducer [] | inducer [] | O=c1cc(-c2ccccc2)oc2ccc3ccccc3c12
